According to patent publication US7786141B2 (Vertex Pharmaceuticals Incorporated, priority 2004, dated 2010):

Assays:
[1] = biological target: T1, M1 muscarinic receptor (Homo sapiens, UniProt P11229); assay: Functional mobilization of intracellular calcium (FLIPR) in M1-CHO cells; type: cell-based; details: M1 receptor, calcium mobilization; for Emax: read-out: M1 Efficacy
T1 construct: expressed in transfected cells; host or cells: CHO (M1-CHO)
T1 sequence (P11229 1-460): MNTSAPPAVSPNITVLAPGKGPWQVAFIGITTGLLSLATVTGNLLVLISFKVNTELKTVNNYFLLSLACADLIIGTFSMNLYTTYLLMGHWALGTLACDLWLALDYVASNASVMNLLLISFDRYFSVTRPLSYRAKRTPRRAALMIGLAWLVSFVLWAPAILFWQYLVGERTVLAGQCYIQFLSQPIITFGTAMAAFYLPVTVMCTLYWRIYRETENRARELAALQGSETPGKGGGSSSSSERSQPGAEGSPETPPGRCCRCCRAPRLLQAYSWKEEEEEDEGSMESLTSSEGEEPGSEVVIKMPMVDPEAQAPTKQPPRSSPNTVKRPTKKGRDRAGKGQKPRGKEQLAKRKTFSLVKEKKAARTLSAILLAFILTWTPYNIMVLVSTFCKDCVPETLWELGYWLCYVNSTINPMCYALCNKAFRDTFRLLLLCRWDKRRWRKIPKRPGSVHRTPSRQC
How it was run: (§1)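 CHO cells stably expressing human M1 or M4 receptor were loaded with Fluo-3 AM (or Calcium 3 dye) in Hepes-buffered saline, pH 7.4, with 1 mM probenecid, 0.5% final DMSO. Agonist mode: compound added directly; antagonist mode: 15 min preincubation before carbachol at EC80. FLIPR fluorescence recorded 60 sec.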

[2] = biological target: T2, M4 muscarinic receptor (Homo sapiens, UniProt P08173); assay: Functional mobilization of intracellular calcium (FLIPR) in M4-CHO cells; type: cell-based; details: M4 receptor, calcium mobilization; for Emax: read-out: M4 Efficacy
T2 construct: expressed in transfected cells; host or cells: CHO (M4-CHO)
T2 sequence (P08173 1-479): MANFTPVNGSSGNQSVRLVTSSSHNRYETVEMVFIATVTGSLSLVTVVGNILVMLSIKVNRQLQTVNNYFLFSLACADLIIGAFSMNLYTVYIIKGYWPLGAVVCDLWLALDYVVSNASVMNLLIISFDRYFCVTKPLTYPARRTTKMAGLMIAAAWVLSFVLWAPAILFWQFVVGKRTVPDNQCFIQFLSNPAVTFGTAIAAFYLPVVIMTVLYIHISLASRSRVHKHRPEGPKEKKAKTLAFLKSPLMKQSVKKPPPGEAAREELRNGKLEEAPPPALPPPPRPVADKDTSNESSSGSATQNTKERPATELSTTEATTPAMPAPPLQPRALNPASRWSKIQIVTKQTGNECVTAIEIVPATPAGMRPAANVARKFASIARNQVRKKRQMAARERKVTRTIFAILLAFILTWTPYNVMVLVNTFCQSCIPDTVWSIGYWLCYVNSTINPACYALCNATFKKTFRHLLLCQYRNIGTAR
How it was run: as §1

Compound	M1 Activity [1]	Emax [1] [%]	M4 Activity [2]	Emax [2] [%]	M1 Efficacy [1]	M4 Efficacy [2]
CC(=O)NC1CC2(CCN(C[C@H]3C[C@H]4C=C[C@H]3C4)CC2)c2ccccc21 (stereo partly drawn) [compound 213]	xx (activity was measured to be between 0.1 μM and 1.0 μM)	65 to 85	x (activity was measured to be greater than 1.0 μM)	< 65	–	–
CCOC(=O)N1C2CCC1CC(N1CCC3(CC1)CN(C(=O)C1CC1)c1ccc(F)cc13)C2 (stereo not drawn) [compound 214]	x (activity was measured to be greater than 1.0 μM)	< 65	x (activity was measured to be greater than 1.0 μM)	< 65	–	–
COCCOC(=O)N1C2CCC1CC(N1CCC3(CC1)CN(C(=O)O[C@@H]1CCOC1)c1ccc(F)cc13)C2 (stereo partly drawn) [compound 216]	xxx (activity was measured to be less than 0.1 μM)	–	x (activity was measured to be greater than 1.0 μM)	–	xxx (efficacy was calculated to be greater than 85%)	x (efficacy was calculated to be less than 65%)
O=C(OC1CCC1)N1C2CCC1CC(N1CCC3(CC1)C(=O)Nc1ccccc13)C2 (stereo not drawn) [compound 217]	xx (activity was measured to be between 0.1 μM and 1.0 μM)	< 65	x (activity was measured to be greater than 1.0 μM)	< 65	–	–
CCNC(=O)N1C2CCC1CC(N1CCC3(CC1)COc1ccc(F)cc13)C2 (stereo not drawn) [compound 219]	x (activity was measured to be greater than 1.0 μM)	65 to 85	x (activity was measured to be greater than 1.0 μM)	< 65	–	–
CCCCOC(=O)N1CC2(CCN(C3CCN(C(=O)OCC)CC3)CC2)c2cc(F)ccc21 [compound 220]	x (activity was measured to be greater than 1.0 μM)	65 to 85	x (activity was measured to be greater than 1.0 μM)	< 65	–	–
CCOC(=O)N1CCC(N2CCC3(CC2)CN(C(C)=O)c2ccc(-c4ccc(C(C)=O)cc4)cc23)CC1 [compound 221]	xx (activity was measured to be between 0.1 μM and 1.0 μM)	65 to 85	x (activity was measured to be greater than 1.0 μM)	< 65	–	–
CCOC(=O)N1C2CCC1CC(N1CCC3(CC1)CN(C(=O)c1ccc(F)cc1)c1ccc(F)cc13)C2 (stereo not drawn) [compound 222]	x (activity was measured to be greater than 1.0 μM)	< 65	x (activity was measured to be greater than 1.0 μM)	< 65	–	–
CCOC(=O)N1CCC(N2CCC3(CC2)CN(C(=O)N(CC)CC)c2ccc(F)cc23)CC1 [compound 223]	x (activity was measured to be greater than 1.0 μM)	< 65	x (activity was measured to be greater than 1.0 μM)	< 65	–	–
Clc1ccc2c(c1)C1(CCN(C3CC4CCC3C4)CC1)CN2 (stereo not drawn) [compound 224]	x (activity was measured to be greater than 1.0 μM)	65 to 85	x (activity was measured to be greater than 1.0 μM)	< 65	–	–
CCOC(=O)N1CCC(N2CCC3(CC2)CN(C(C)=O)c2ccc(OC(F)(F)F)cc23)CC1 [compound 225]	x (activity was measured to be greater than 1.0 μM)	< 65	x (activity was measured to be greater than 1.0 μM)	< 65	–	–
CC(=O)N1CC2(CCN(C3CCC(C(C)C)CC3)CC2)c2cc(F)ccc21 (stereo not drawn) [compound 226]	x (activity was measured to be greater than 1.0 μM)	< 65	x (activity was measured to be greater than 1.0 μM)	< 65	–	–
CS(=O)(=O)N[C@@H]1CC2(CCN(C[C@H]3C[C@H]4CC[C@H]3C4)CC2)c2ccccc21 [compound 227]	xxx (activity was measured to be less than 0.1 μM)	> 85	xxx (activity was measured to be less than 0.1 μM)	> 85	–	–
CCOC(=O)C1CCC(N2CCC3(CC2)CN(C(C)=O)c2ccc(F)cc23)CC1 (stereo not drawn) [compound 228]	x (activity was measured to be greater than 1.0 μM)	< 65	x (activity was measured to be greater than 1.0 μM)	< 65	–	–
CCOC(=O)N1CCC(N2CCC3(CC2)CN(CCC(=O)CC)c2ccc(F)cc23)CC1 [compound 229]	xx (activity was measured to be between 0.1 μM and 1.0 μM)	< 65	xxx (activity was measured to be less than 0.1 μM)	> 85	–	–
C#CCCOC(=O)N1C2CCC1CC(N1CCC3(CC1)CN(C(=O)N(C)C)c1ccc(F)cc13)C2 (stereo not drawn) [compound 230]	x (activity was measured to be greater than 1.0 μM)	< 65	xx (activity was measured to be between 0.1 μM and 1.0 μM)	> 85	–	–
CCCNC(=O)N1C2CCC1CC(N1CCC3(CC1)COc1ccc(F)cc13)C2 (stereo not drawn) [compound 231]	x (activity was measured to be greater than 1.0 μM)	65 to 85	x (activity was measured to be greater than 1.0 μM)	> 85	–	–
Cc1ccc2c(c1)C1(CCN(C3CC4CCC3C4)CC1)CN2S(C)(=O)=O (stereo not drawn) [compound 232]	xx (activity was measured to be between 0.1 μM and 1.0 μM)	< 65	xxx (activity was measured to be less than 0.1 μM)	> 85	–	–
Cc1cc(C(=O)N2CC3(CCN(C4CC5CCC(C4)N5C(=O)O[C@@H]4CCOC4)CC3)c3cc(F)ccc32)nn1C (stereo partly drawn) [compound 233]	xxx (activity was measured to be less than 0.1 μM)	65 to 85	xxx (activity was measured to be less than 0.1 μM)	> 85	–	–
CCOC(=O)N1CCC(N2CCC3(CC2)CN(C(C)=O)c2ccc(-c4cccnc4)cc23)CC1 [compound 234]	xxx (activity was measured to be less than 0.1 μM)	65 to 85	xxx (activity was measured to be less than 0.1 μM)	65 to 85	–	–
COC(=O)N1CC2(CCN(C3CC4CCC(C3)N4C(=O)OC)CC2)c2cc(F)ccc21 (stereo not drawn) [compound 235]	xx (activity was measured to be between 0.1 μM and 1.0 μM)	65 to 85	x (activity was measured to be greater than 1.0 μM)	65 to 85	–	–
CC(=O)N1CC2(CCN(C3CCC(C(F)(F)F)CC3)CC2)c2cc(F)ccc21 (stereo not drawn) [compound 236]	xxx (activity was measured to be less than 0.1 μM)	65 to 85	xx (activity was measured to be between 0.1 μM and 1.0 μM)	65 to 85	–	–
CCOC(=O)N1CCC(CN2CCC3(CC2)CN(C(C)=O)c2ccc(OC)cc23)CC1 [compound 237]	xxx (activity was measured to be less than 0.1 μM)	< 65	xx (activity was measured to be between 0.1 μM and 1.0 μM)	< 65	–	–
O=C1CC2(CCN(C[C@@H]3C[C@H]4C=C[C@H]3C4)CC2)c2ccccc21 [compound 238]	x (activity was measured to be greater than 1.0 μM)	< 65	x (activity was measured to be greater than 1.0 μM)	< 65	–	–
